Results as given in patent US5532231A, “Antibacterial agent” (priority 1994, dated 1996).

How the values were obtained:
[1] = tested on: severe gingivitis and plaque; settings: humans; cited from earlier work
Mycobacteria smegmatis = assay: Antimicrobial spectrum, liquid media, viable cell count; assay type: cell-based, Mycobacterium smegmatis; settings: saturating concentrations
Description: (§1) Saturated solutions of TA and Focusin were prepared by adding 1.14 μg TA and 7 μg Focusin to 1 ml LB (final conc. of 1% ethanol). About 10^5 bacteria of various strains were then added. The control was bacteria in the same medium with no antibacterial agents. The bacteria were introduced at 37° C. with shaking at 100 rpm. When the control became turbid, viable cell count was performed on LB agar plates. Growth inhibition is presented as percentage of the no antibiotic control.

E. coli ESS Kan^r [2] = assay: Sensitivity to combined exposure to light and air (remaining activity by paper disc bioassay); assay type: physicochemical, Escherichia coli
Description: (§2) Antibiotic activity against E. coli ESS Kan^r was determined by the paper disc filter assay (Leo et al., 1945). Unknown quantities of antibiotic TA or Focusin, dissolved in ethanol, saline or NB were applied to paper disc filters (6 mm diameter; Schleicher and Schull). After allowing the ethanol to evaporate in the hood for about 15 mins, the dry filters were placed on nutrient broth plates which had been overlaid with an overnight culture of E. coli ESS Kan^r as described above.
(§3) The diameter of the zone of inhibition was recorded after 18 hours in incubation at 37° C. The concentration of the antibacterial agents were determined from a standard inhibition curve prepared with known quantities of TA and Focusin.
100 ng of TA and Focusin dissolved in ethanol were applied to paper filters and allowed to dry in a hood for 15 mins. The filters were then exposed to light from a fluorescent lamp in the hood; the distance from the lamp to the filters was approximately 40 cm. The controls were placed in the dark under a plastic box within the hood.
After exposure of the filters to the light for varying periods of time, the remaining activity of the agents was measured by the paper disc bioassay and the results are shown in the following Table 1: […]

E. coli ESS [3] = assay: Bactericidal effect when bound to mouse tissues; assay type: cell-based, Escherichia coli; settings: 4 μg TA or 20 μg Focusin, 5 h
Description: Two mice were sacrificed by exposure to ether. The bladder, eyes, intestines, lungs, heart, teeth, liver, spleen and kidneys were removed by dissection. Each experimental set consisted of three test tubes. A piece of each tissue type was placed in each of the three test tubes. The amount of tissue per tube were as follows: bladder 1/3, eye 1/2, intestine 1 cm, lung 1/2, heart 1/3, fang tooth 1/2, liver 1/3, spleen 1/3 and kidney 1/2. One test tube contained a control tissue which was treated only with the solvent used for dissolving the antibacterial agent, usually 50% ethanol. The second and third test tubes contained tissues were treated with 4 μg TA or 20 μg Focusin, respectively.
Following application of the antibacterial agent or the control solution, the tissues were allowed to dry in a hood for 30 mins., and then placed in the test tubes.
One milliliter of sterile saline was then added to each test tube and the tubes were then incubated with shaking (50 rpm) at 37° C. for one hour. The amount of antibacterial agent that was released to the saline was measured following chloroform extraction by the disc filter assay.
The tissues were then transferred to exponentially growing cultures of E. coli ESS in NB at a concentration of 10^5 cells/ml. Incubation was at 37° C. and continued for 5 hours, following which the number of viable cells was checked.

Staphylococcus aureas = assay: Antimicrobial spectrum, liquid media, viable cell count; assay type: cell-based, Staphylococcus aureus; settings: saturating concentrations
Description: as §1

Bacillus subtilis = assay: as above; assay type: cell-based; settings: saturating concentrations
Description: as §1

Klebsiella Gr47 = assay: as above; assay type: cell-based; settings: saturating concentrations; hospital strain
Description: as §1

Salmonella thyphimurium = assay: as above; assay type: cell-based; settings: saturating concentrations
Description: as §1

Providencia strautii = assay: as above; assay type: cell-based; settings: saturating concentrations
Description: as §1

Klebsiella sp = assay: as above; assay type: cell-based; settings: saturating concentrations; hospital strain
Description: as §1

Serratia marcescens = assay: as above; assay type: cell-based; settings: saturating concentrations
Description: as §1

Erwinia herbicola = assay: as above; assay type: cell-based; settings: saturating concentrations
Description: as §1

Enterobacter = assay: as above; assay type: cell-based; settings: saturating concentrations
Description: as §1

Pseudomonas aeruginosa = assay: as above; assay type: cell-based; settings: saturating concentrations
Description: as §1

Citrobacter diversus = assay: as above; assay type: cell-based; settings: saturating concentrations
Description: as §1

Helicobacter pilori = assay: as above; assay type: cell-based; settings: saturating concentrations
Description: as §1

Proteus vulgaris = assay: as above; assay type: cell-based; settings: saturating concentrations
Description: as §1

Staphylococcus albus = assay: as above; assay type: cell-based
Description: as §1

Klebsiella pneumoniae = assay: as above; assay type: cell-based; settings: saturating concentrations; hospital strain
Description: as §1

[4] = assay type: physicochemical
Description: Focusin and TA at concentrations of 3 mg/ml were diluted either in ethanol or in saline containing 1% ethanol to yield a final concentration in each case of 30 μg/ml. The solutions were mixed at 37° C. for one hour under shaking, and then were centrifuged at 5000 g for 10 minutes. Several samples were taken from the supernatants of the tubes and were applied on disc filters in order to determine the concentration of the antibacterial agents in the saline and ethanol solutions, by the paper disc bioassay method.

E. coli ESS Kan^r [5] = assay: Paper disc filter antibiotic assay (zone of inhibition); assay type: cell-based, Escherichia coli; settings: paper disc
Description: Escherichia coli ESS Kan^r, is a kanamycin resistant strain of E. coli ESS, derived by transducing E. coli ESS with P1:TnV, Kan^r. This strain was used for the standard antibiotic assays.
LB Kan medium was solidified by 1.5% Bacto agar (Difco). For the antibiotic assay, Nutrient Broth agar plates were used. NB medium is 0.8% Nutrient Broth (Difco) containing 0.5% NaCl (Merck). NB was solidified by 1.8% Bacto agar (Difco). The NB plates were overlaid by 3.5 ml NB soft agar (0.9% Bacto agar) mixed with 0.1 ml E. coli ESS Kan^r overnight culture.
as §2, §3

[6] = tested on: Gram-positive and Gram-negative bacteria; settings: literature; cited from earlier work
E. coli ESS [7] = assay: Antimicrobial spectrum, liquid media, viable cell count; assay type: cell-based, Escherichia coli; settings: saturating concentrations
Description: as §1

E. coli K-12 = assay: as above; assay type: cell-based, Escherichia coli; settings: saturating concentrations
Description: as §1

CCCC1OC(=O)C(C)CC(C)CCCCC(=O)CCCC(CC)C=CC=C(COC)CCC(O)C(O)CC(O)CNC1=O (stereo not drawn) [TA, reference compound]
effect on gingivitis and plaque (in words) [1]: to treat severe gingivitis and to reduce plaque in humans
killing (Mycobacteria smegmatis): 0%
activity after exposure to light and air (E. coli ESS Kan^r [2]; 0 hours): 100%
activity after exposure to light and air (E. coli ESS Kan^r [2]; 1 hour): 70%
activity after exposure to light and air (E. coli ESS Kan^r [2]; 4 hours): 63%
activity after exposure to light and air (E. coli ESS Kan^r [2]; 6 hours): 26%
activity after exposure to light and air (E. coli ESS Kan^r [2]; 8 hours): 21%
activity after exposure to light and air (E. coli ESS Kan^r [2]; 20 hours): 19%
degradation at combined exposure to light and air (E. coli ESS Kan^r [2]; after 20 hours): 81%
degradation at combined exposure to light and air (E. coli ESS Kan^r [2]; after one hour, 60 min): 30%
Inhibition % by the treated tissue (E. coli ESS [3]; bladder): 100%
Inhibition % by the treated tissue (E. coli ESS [3]; heart): 100%
Inhibition % by the treated tissue (E. coli ESS [3]; intestine): 99%
Inhibition % by the treated tissue (E. coli ESS [3]; kidney): 100%
Inhibition % by the treated tissue (E. coli ESS [3]; liver): 96%
Inhibition % by the treated tissue (E. coli ESS [3]; lungs): 100%
Inhibition % by the treated tissue (E. coli ESS [3]; spleen): 100%
Inhibition % by the treated tissue (E. coli ESS [3]; teeth): 100%
killing (Staphylococcus aureas): 100%
killing (Bacillus subtilis): 100%
killing (Klebsiella Gr47): 100%
killing (Salmonella thyphimurium): 60%
killing (Providencia strautii): 100%
killing (Klebsiella sp): 100%
killing (Serratia marcescens): 100%
killing (Erwinia herbicola): 100%
killing (Enterobacter): 100%
killing (Pseudomonas aeruginosa): 0%
killing (Citrobacter diversus): 100%
killing (Helicobacter pilori): 100%
killing (Proteus vulgaris): 100%
incubation time after which the strain began to show sensitivity (Staphylococcus albus; saturating concentrations): > 46 h
killing (Staphylococcus albus; saturating concentrations (TA)): 83%
killing (Klebsiella pneumoniae): 100%
solubility in ethanol [4]: completely soluble
solubility in saline ([4]; saline with 1% ethanol, 1 h): about 1.14 μg/ml
amount giving an inhibition zone of 11 mm (E. coli ESS Kan^r [5]; zone 11 mm): 64 ng
amount required to obtain a zone of inhibition of about 2 mm (E. coli ESS Kan^r [5]; zone about 2 mm): 7.5 ng
growth inhibition (in words) [6]: capable of inhibiting growth of a variety of Gram-positive and Gram-negative bacteria
mode of growth inhibition (in words) [6]: lysis of growing bacteria as a result of blocking of cell wall synthesis
killing (E. coli ESS [7]): 100%
killing (E. coli K-12): 100%
